{"source": "patent US11441195B2", "about": "“Energetic cancer stem cells (e-CSCs): a new hyper-metabolic and proliferative tumor cell phenotype, driven by mitochondrial energy” (LUNELLA BIOTECH, INC., priority 2018, dated 2022)", "key": {"[1]": {"system": "3D tumor sphere formation", "settings": "cited from earlier work"}, "MCF7 cells [2]": {"system": "MCF7 cells", "test": "Mammosphere formation assay (3D-spheroids)", "assay_type": "cell-based, human", "settings": "for mammosphere formation in MCF7 cells: dose-dependent (0, 50 and 100 nM), FIG. 8A", "protocol": "Mammosphere formation assay (for generating 3D-spheroids): A single-cell suspension was prepared using enzymatic, and manual disaggregation (25 gauge needle). […] After 5 days of culture, 3D-spheres >50 μm were counted using an eye piece (“graticule”), and the percentage of cells plated which formed spheres was calculated and is referred to as percent mammosphere formation, and was normalized to one (1=100% MSF). Mammosphere formation efficiency was analyzed in both the “low” and “high” sub-populations of auto-fluorescent cells, generated from either 2D-monolayers (M-L vs. M-H) or 3D-spheroids (S-L vs. S-H). All mammosphere experiments were performed in triplicate, at least 3 times independently."}, "[3]": {"system": "S-H cells (MCF7 3D-spheroids)", "test": "S-H cell sub-population in MCF7 3D-spheroids after treatment (auto-fluorescence flow-cytometry)", "assay_type": "cell-based, human", "settings": "for change in S-H cells: control to 100 nM, FIG. 8B/8C", "protocol": "FIG. 8A is a bar graph showing mammosphere formation in MCF7 cells at various concentrations of DPI, and including Ribociclib at 100 nM. […] Most importantly, e-CSCs derived from 3D-spheroids are highly oxidative and can be effectively targeted with an OXPHOS inhibitor. Non-limiting examples of other OXPHOS inhibitors that may be used in the present approach include atovaquone, irinotecan, sorafenib, niclosamide, and berberine chloride.\nData were analyzed with FlowJo 10.1 software.\nFor 3D-spheroid suspensions, after 5 days of growth under low-attachment condition, the spheres were collected from six 225 cm2 flasks pre-coated with poly-HEMA and gently centrifuged at 100 g for 5 min. After centrifugation, 1 ml of 0.025% of trypsin was added to the “sphere-pellet” and incubated them at 37° C. for 5 minutes. Using a 25-gauge needle, the sphere-suspension was passed through the syringe 4 times. […] After creating these single-cell suspensions, they were subjected to standard flow-cytometry (using the SONY SH800 Cell Sorter) to isolate the auto-fluorescent cell sub-populations, as indicated above. Examples of flow-cytometry plots are included in the figures, and the gating strategy is shown."}, "[4]": {"system": "M-H cells from MCF7 monolayers"}, "MCF7 monolayers": {"system": "MCF7 monolayers", "settings": "after 130 hours of DPI treatment, FIG. 7C", "quoted_text": "The data represents 100,000 cells after 120 hours of DPI treatment.\nVital mitochondrial staining: Cells were trypsinized and re-suspended into a 1×10^6 cell/ml solution in PBS. 10 nM of MitoTracker Deep-Red (Thermo Fisher Scientific) was added for 30 minutes at 37° C. before centrifugation and re-suspension in PBS Ca/Mg for FACS analysis (ATTUNE NxT) or Cell Sorting (SONY SH 800). All subsequent steps were performed in the dark. Data analysis was performed using FlowJo software."}, "MCF7 cells [5]": {"system": "MCF7 cells", "settings": "cited from earlier work"}, "[6]": {"settings": "breast cancer patients; cited from earlier work"}}}
{"smiles": "Cc1n[nH]c(C)c1Cc1sc2c(c1C(=O)N1C[C@H](O)CO1)c(=O)n(C)c(=O)n2CC(C)C", "note": "[AR-C155858]", "values": [{"measurement": "3D tumor sphere formation", "setting": "[1]", "value": "successfully blocked"}]}
{"smiles": "[Cl-].c1ccc2c(c1)[I+]c1ccccc1-2", "note": "[DPI, Diphenyleneiodonium chloride]", "values": [{"measurement": "3D-spheroid formation in MCF7 cells", "setting": "MCF7 cells [2]", "value": "inhibits"}, {"measurement": "3D-mammosphere formation", "setting": "MCF7 cells [2]; 100 nM", "value": "almost completely inhibited"}, {"measurement": "mammosphere formation in MCF7 cells", "setting": "MCF7 cells [2]", "value": "inhibited"}, {"measurement": "depletion of S-H cells in anchorage-independent single live cells", "setting": "[3]; 100 nM", "value": "~60", "unit": "%"}, {"measurement": "change in S-H cells", "setting": "[3]", "value": "decreasing"}, {"measurement": "increase in the number of M-H cells", "setting": "[4]; 100 nM DPI, 2D-monolayer cultures, 5-day period", "value": "~7.5", "unit": "fold"}, {"measurement": "percentage of M-H cells after treatment", "setting": "[4]; 5-day period (120 hours), concentration dependent, FIG. 7B", "value": "increased"}, {"measurement": "mitochondrial mass (MitoTracker)", "setting": "MCF7 monolayers", "value": "increased"}, {"measurement": "mitochondrial function", "setting": "MCF7 cells [5]", "value": "selectively inhibits"}, {"measurement": "toxic side effects", "setting": "MCF7 cells [5]", "value": "without any toxic side effects"}, {"measurement": "changes in cell viability or apoptosis", "setting": "MCF7 cells [5]; prior studies", "value": "did not induce changes"}, {"measurement": "metabolic phenotype shift", "setting": "MCF7 cells [5]; prior studies", "value": "shifted the cells towards a more glycolytic phenotype"}]}
{"smiles": "CN(C)C(=O)c1cc2cnc(Nc3ccc(N4CCNCC4)cn3)nc2n1C1CCCC1", "note": "[Ribociclib]", "values": [{"measurement": "mammosphere formation in MCF7 cells", "setting": "MCF7 cells [2]", "value": "inhibited"}, {"measurement": "propagation of S-H cells", "setting": "[3]; FIGS. 8A-C", "value": "effectively inhibits"}, {"measurement": "change in S-H cells", "setting": "[3]", "value": "decreasing"}, {"measurement": "most common side-effects", "setting": "[6]", "value": "neutropenia, anemia and GI-distress"}]}
{"smiles": "CCCCC[C@H](CC(=O)NO)C(=O)N[C@H](C(=O)N1CCC[C@H]1CO)C(C)C", "note": "[actinonin]", "values": [{"measurement": "3D tumor sphere formation", "setting": "[1]", "value": "successfully blocked"}]}
{"smiles": "CC[C@H]1OC(=O)[C@H](C)[C@@H](O[C@H]2C[C@@](C)(OC)[C@@H](O)[C@H](C)O2)[C@H](C)[C@@H](O[C@@H]2O[C@H](C)C[C@H](N(C)C)[C@H]2O)[C@](C)(O)C[C@@H](C)CN(C)[C@H](C)[C@@H](O)[C@]1(C)O", "note": "[azithromycin]", "values": [{"measurement": "3D tumor sphere formation", "setting": "[1]", "value": "successfully blocked"}]}
{"smiles": "COc1nc2ccc(Br)cc2cc1[C@@H](c1ccccc1)[C@@](O)(CCN(C)C)c1cccc2ccccc12", "note": "[bedaquiline]", "values": [{"measurement": "3D tumor sphere formation", "setting": "[1]", "value": "successfully blocked"}]}
{"smiles": "COc1ccc2cc3[n+](cc2c1OC)CCc1cc2c(cc1-3)OCO2", "note": "[berberine]", "values": [{"measurement": "3D tumor sphere formation", "setting": "[1]", "value": "successfully blocked"}]}
{"smiles": "COc1ccc([C@@H]2CC(=O)c3c(O)cc(O[C@@H]4O[C@H](COC(=O)CC(C)(O)CC(=O)O)[C@@H](O)[C@H](O)[C@H]4O[C@@H]4O[C@@H](C)[C@H](O)[C@@H](O)[C@H]4O)cc3O2)cc1O", "note": "(stereo partly shown) [brutieridin]", "values": [{"measurement": "3D tumor sphere formation", "setting": "[1]", "value": "successfully blocked"}]}
{"smiles": "C[C@@H]1O[C@@H](O[C@@H]2[C@@H](Oc3cc(O)c4c(c3)O[C@H](c3ccc(O)cc3)CC4=O)O[C@@H](COC(=O)C[C@@](C)(O)CC(=O)O)[C@H](O)[C@H]2O)[C@@H](O)[C@H](O)[C@H]1O", "note": "[melitidin]", "values": [{"measurement": "3D tumor sphere formation", "setting": "[1]", "value": "successfully blocked"}]}
{"smiles": "CC[C@H]1/C=C/C=C/C[C@@H](C)[C@H](O)[C@@](C)(O)C(=O)[C@@H](C)[C@H](O)[C@@H](C)C(=O)[C@@H](C)[C@H](O)[C@@H](C)/C=C/C(=O)O[C@@H]2[C@H](C)[C@H](CC1)O[C@]1(CC[C@H](C)[C@H](C[C@@H](C)O)O1)[C@H]2C", "note": "[oligomycin]", "values": [{"measurement": "3D tumor sphere formation", "setting": "[1]", "value": "successfully blocked"}]}
{"smiles": "CN(C)c1cc(NC(=O)CNC(C)(C)C)c(O)c2c1C[C@H]1C[C@H]3[C@H](N(C)C)C(O)=C(C(N)=O)C(=O)[C@@]3(O)C(O)=C1C2=O", "note": "[tigecycline]", "values": [{"measurement": "3D tumor sphere formation", "setting": "[1]", "value": "successfully blocked"}]}
